95 molecules from PubChem BioAssay AID624491 (Broad Institute, 2012) can be followed below.

Each structure is given as a SMILES string.

This experiment deals with D54 ERlucT glycosylation luciferase reporter, luminescence, 24 h. The experiment in a line: blockers of NLG process in reporter cells – D54 ERlucT cells, luminescence, cherry-picks, dose response (AID 624491).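 Also: signal gain reflects blocked N-linked glycosylation of a luciferase reporter; actives raise luciferase signal so AC26 marks activators of the reporter.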
Take `CC(=O)Nc1cccc(-c2ccnc3c2CC(C)(C(=O)NCCc2ccccc2)O3)c1` (stereo not given): the AC26 was 1370 nM.
As for `Cc1ccc(S(=O)(=O)N(C)C[C@@H]2Oc3ccc(NC(=O)CCC(F)(F)F)cc3CC(=O)N([C@@H](C)CO)C[C@@H]2C)cc1`, the AC26 is 1470 nM.
For the molecule `CC(=O)Nc1ccc(Nc2ccc3c4c(cc(=O)n3C)-c3ccccc3C(=O)c24)cc1`, the AC26 is 730 nM.
With `CC(C)CCNC(=O)CCCOc1cc(=O)n(C)c2ccccc12`, the AC26 is 4270 nM.
With `COc1ccc([C@H]2CC(=O)C=C(c3c(OC)cccc3OC)C2)cc1`, the AC26 was 3260 nM.
The figure for `CCCCC[C@H](O)/C=C/[C@@H]1[C@@H](C/C=C\CCCC(=O)OC)[C@@H](O)C[C@H]1O` is 10.5 nM.
The figure for `Cc1noc(C)c1-c1ccc(C(=O)NCCc2ccccc2)c2occc12` is 4410 nM.
For the molecule `O=C1C=C(c2cccs2)C[C@H](c2ccccc2)[C@H]1n1nnc([N+](=O)[O-])n1`, the AC26 was 260 nM.
For `COc1ccc(/C=C/C(=O)c2ccc3c(c2)OCCO3)cc1[N+](=O)[O-]`, the AC26 is 5050 nM.
With `COc1cc(NC(=O)NCc2ccco2)ccc1-c1ccc(NC(=O)NCc2ccco2)cc1OC`, the AC26 is 4350 nM.
Consider `Cn1c(=O)cc2c3c(c(N4CCCCC4)ccc31)C(=O)c1ccccc1-2`, for which the AC26 was 4360 nM.
As for `COc1ccc(Nc2cc(C)nc(-n3nc(C)cc3C)n2)cc1`, the AC26 was 193 nM.
On to `Clc1cccc(Cl)c1Cn1cnc2c(NCc3ccco3)ncnc21`, for which the AC26 was 17300 nM.
As for `CCOc1cc(/C=C/C(=O)c2ccc3c(c2)OCCO3)ccc1OCC(=O)N(C)C`, the figure is 3700 nM; as for `CN(C)S(=O)(=O)c1ccc(N2CCCC2)c(C(=O)Nc2nccs2)c1`, 549 nM; as for `NC(=O)CC(NC(=O)Cc1ccc(Cl)cc1)c1ccc(NC2CCN(Cc3ccccc3)CC2)c([N+](=O)[O-])c1` (stereo not given), 480 nM.
As for `CNc1ccc(Br)cc(C(=O)/C=C/c2cccc(OC)c2OC)c1=O`, the AC26 is 2220 nM.
For the molecule `O=C(NCCCN1CCOCC1)c1cc(-c2ccccc2)on1`, the AC26 was 5780 nM.
The figure for `O=C(N/N=C/c1c(-c2ccccc2)[nH]c2ccccc12)c1cccnc1` is 117 nM; for `Cn1c(-c2ccccc2)c(/C=N/NC(=O)c2ccc(O)cc2)c2ccccc21` it is 647 nM.
For the molecule `C=CCn1c(SCc2c(C)noc2C)nc2sc(C)c(C)c2c1=O`, the AC26 was 891 nM.
Consider `COc1ccc2c(c1)[C@H]1[C@H](CO2)[C@H](c2ccccc2)[C@]2(C)C(=O)Nc3cc(F)ccc3C(=O)N12`, for which the AC26 was 19 nM.
Take `CC(=O)c1cccc(-c2ccnc3c2CC(C(=O)NCc2ccccc2)O3)c1` (stereo not given): the AC26 is 657 nM.
With `COc1ccc(CC(=O)N/N=C/c2c(C)n(C)c3ccccc23)cc1OC`, the AC26 was 4460 nM.
Regarding `COc1ccc(C(=O)/C=C/c2ccc(OC)c(O)c2)c(F)c1`, the AC26 is 4860 nM.
In the case of `CCOC(=O)N1CCN(C(=O)c2cc(-c3ccncc3)nc3ccccc23)CC1`, the AC26 is 1410 nM.
With `Cc1noc(C)c1-c1ccc(C(=O)NCc2cccnc2)c2occc12`, the AC26 is 4700 nM.
The figure for `CCC1=Nc2cc(C(=O)NCCCOC)ccc2Sc2ccccc21` is 422 nM; for `COc1ccc(C(=O)/C=C2/C(=O)Nc3ccccc32)c(OC)c1` it is 4070 nM; for `Cc1ccc(-c2nc(C(=O)NCCCN(C)C)cc3c2[nH]c2ccccc23)cc1` it is 4300 nM.
The figure for `O=c1[nH]c(=O)n(C2CC(O)C(CO)O2)cc1I` (stereo not given) is 880 nM.
The figure for `CCN(CC)CCC(=O)Nc1cccc2c1C(=O)c1ccccc1C2=O` is 965 nM; for `O=C(/C=C/c1ccccc1)c1ccccc1` it is 6780 nM.
With `NC(=O)c1cccc(-c2coc3c(C(=O)NCc4ccccc4)cccc23)c1`, the AC26 was 4070 nM.
For `O=C1NC(=O)N(Cc2ccco2)C(=O)/C1=C/C=C/c1ccco1`, the AC26 is 953 nM.
As to `COc1cc(C)cc(C(=O)C=Cc2ccccc2)c1O`, the AC26 is 4920 nM.
Take `Cc1ccc(S(=O)(=O)N2CCN(C(=O)COC(=O)c3cc([N+](=O)[O-])ccc3NCCO)CC2)c(C)c1`: the AC26 is 2430 nM.
Regarding `COc1cccc(C(NC(C)=O)c2nc(-c3ccc(F)cc3OC)cs2)c1` (stereo not given), the AC26 is 105 nM.
For the molecule `Cc1ccc(S(=O)(=O)c2cc3c(=O)n4ccccc4nc3n(CCc3ccccc3)c2=N)cc1`, the AC26 was 84.5 nM.
As for `COc1ccc(-c2nc3c(s2)CCc2onc(-c4ccc(OC)cc4)c2-3)cc1`, the AC26 is 14400 nM.
On to `CCN(CC)S(=O)(=O)c1ccc(N2CCOCC2)c(NC(=O)c2[nH]c(C)c(C(C)=O)c2C)c1`, for which the AC26 is 1860 nM.
For the molecule `Cc1ccc(/C=N/NC(=O)C2COc3ccccc3O2)s1` (stereo not given), the AC26 is 307 nM.
The figure for `C[C@H](CO)N1C[C@H](C)[C@@H](CN(C)S(=O)(=O)c2cccs2)Oc2c(NC(=O)Cc3ccccc3)cccc2C1=O` is 2250 nM; for `CC(C)CCN(C(=O)Cc1ccc(Cl)c(Cl)c1)c1c(N)n(Cc2ccccc2)c(=O)[nH]c1=O` it is 2080 nM; for `CNC(=O)c1cccn(Cc2ccc(C(F)(F)F)cc2)c1=O` it is 3370 nM.
As for `COc1cccc(C2=NOC(C(=O)NCc3ccccc3)C2)c1` (stereo not given), the figure is 73.2 nM.
With `O=C(/C=C/c1ccc(-c2ccccc2[N+](=O)[O-])o1)c1ccc(Br)cc1`, the AC26 is 4780 nM.
The figure for `Nc1c(C(=O)Nc2ccc(S(=O)(=O)N3CCCC3)cc2)sc2nc3ccc(OC(F)(F)F)cc3cc12` is 1160 nM; for `Clc1ccc(C2=Nn3c(nnc3-c3cc(-c4ccccc4)n[nH]3)SC2)cc1` it is 5130 nM.
Consider `CCOC(=O)N1CCC(NC(=O)c2ccc3c(c2)N=C(C)c2c(C)ccc(C)c2S3)CC1`, for which the AC26 is 441 nM.
Take `OC1CCCN(Cc2c3ccccc3cc3ccccc23)C1` (stereo not given): the AC26 is 8750 nM.
Consider `Cc1nnc2c(NC3CCCC3)nc3ccccc3n12`, for which the AC26 was 5060 nM.
As for `COc1ccccc1NC1=NC(c2ccc(Cl)cc2)N=C(N)N1` (stereo not given), the figure is 1370 nM.
For `Nc1nonc1C(=O)N/N=C/c1ccc([N+](=O)[O-])o1`, the AC26 was 6160 nM.
With `CN(C1=C(NC(=O)c2ccc(Cl)cc2)C(=O)c2ccccc2C1=O)c1ccccc1`, the AC26 was 3410 nM.
Take `Nc1nc(-c2ccccc2)cc(-c2ccccc2O)n1`: the AC26 was 4980 nM.
The figure for `CC(NC(=O)c1ccc2ccccc2n1)c1ccc(S(N)(=O)=O)cc1` (stereo not given) is 4020 nM.
On to `O=C(c1cccs1)N1CCC(c2nc3c(nnn3Cc3cccc(Cl)c3)c(=O)[nH]2)CC1`, for which the AC26 is 217 nM.
`COc1ccc(/C=C/C(=O)c2ccc(Cl)s2)cc1O`: the AC26 is 4730 nM.
Regarding `Cc1ccc(Nc2nnc(SCC(=O)Nc3ncc(S(=O)(=O)c4ccc([N+](=O)[O-])cc4)s3)s2)cc1`, the AC26 is 9030 nM.
As to `O=C(NCC1CCCO1)c1cc(-c2ccc(F)cc2)no1` (stereo not given), the AC26 was 5760 nM.
In the case of `Cc1ccc(NC(=O)c2ccc(Cl)cc2[N+](=O)[O-])nc1`, the AC26 is 1080 nM.
Take `COc1ccc(NC(=O)C2(C)Cc3c(-c4cccc(C(N)=O)c4)ccnc3O2)cc1` (stereo not given): the AC26 is 2320 nM.
Consider `O=C(N/N=C/c1cccs1)c1cc(-c2cccc3ccccc23)n[nH]1`, for which the AC26 is 4700 nM.
With `CCOC(=O)c1cnc2c(ccc3ccccc32)c1NCCCN(C)C`, the AC26 is 2050 nM.
As to `COc1ccc(N2CCc3c(C)nc4c(OC)cccc4c32)cc1`, the AC26 was 368 nM.
As for `OCCNc1c2ccccc2nc2ccccc12`, the AC26 was 907 nM.
In the case of `O=C(C=Cc1cccc(O)c1)c1ccccc1O`, the AC26 was 3290 nM.
On to `Cc1ccc(OCCN2C(=O)C(=O)c3cc(C)ccc32)cc1`, for which the AC26 was 2460 nM.
As for `CN1C(=O)C(=Cc2sc(=O)n(-c3ccccc3)c2N(C)C)C(=O)N(C)C1=O`, the figure is 5320 nM; as for `CC(=O)c1c(C)[nH]c(C(=O)Nc2nccs2)c1C`, 2200 nM.
In the case of `OCCCCCN=c1cc(-c2ccccc2)oc2ccc(Cl)cc12`, the AC26 is 1970 nM.
Consider `COCCNc1nc(NCc2ccccc2)nc2ccsc12`, for which the AC26 was 136 nM.
Take `OCC1OC(n2ccc3c(SCc4ccccc4)ncnc32)C(O)C1O` (stereo not given): the AC26 was 332 nM.
Turning to `CC[C@H](C)C(=O)O[C@H]1C[C@@H](C)C=C2C=C[C@H](C)[C@H](CC[C@@H]3C[C@@H](O)CC(=O)O3)[C@H]21`, the AC26 was 301 nM.
As to `Cn1nc(C(F)(F)F)c(/C=N/OC(=O)c2ccccc2Cl)c1SCc1ccccc1Cl`, the AC26 is 817 nM.
Turning to `c1cc2c3c(cccc3c1)C(N1CCCCC1)=N2`, the AC26 is 13700 nM.
In the case of `CCN(CC)S(=O)(=O)c1cccc(C(=O)N/N=C/c2ccc([N+](=O)[O-])o2)c1`, the AC26 was 2340 nM.
In the case of `C#CCCOC(=O)N1C2=NC(C(=O)OC)=C(C(=O)OC)[C@@H]3N(C)c4ccccc4[C@]23C[C@H]1C(=O)OC`, the AC26 is 479 nM.
As for `CCCOc1ccc2ccccc2c1/C=N/n1c(C)nnc1-n1nc(C)cc1C`, the figure is 503 nM; as for `CCOC(=O)c1cnc2c(C)cc(C)cc2c1NCCCN1CCOCC1`, 3470 nM; as for `N=c1c(S(=O)(=O)c2ccc(Cl)cc2)cc2c(=O)n3ccccc3nc2n1CCc1ccccc1`, 122 nM.
`C[C@@]12C(=O)Nc3cc(Cl)ccc3C(=O)N1[C@H]1c3cc(Br)ccc3OC[C@@H]1[C@@H]2c1ccccc1`: the AC26 was 961 nM.
With `N#Cc1c(-c2ccc(F)cc2)c(-c2ccc(F)cc2)nn(CCO)c1=O`, the AC26 is 2080 nM.
The figure for `CC1(C(=O)NCc2cccs2)Cc2c(-c3cccc(C(F)(F)F)c3)ccnc2O1` (stereo not given) is 15100 nM; for `CCN(CC)CCCNc1cc(C)c(C#N)c2nc3ccccc3n12` it is 17000 nM; for `COc1ccc(C(=O)Nc2sc(C)c(C)c2CN2CC(C)OC(C)C2)cc1` (stereo not given) it is 659 nM.
Consider `O=C(NO)c1ccc(OC(F)F)cc1`, for which the AC26 was 3430 nM.
Take `CCC(C)Nc1nc2ccccc2n2c(C)nnc12` (stereo not given): the AC26 was 1500 nM.
For the molecule `Oc1ccc(Nc2nc(N3CCCC3)c3ccccc3n2)cc1`, the AC26 is 335 nM.
As for `Cc1nc2ccccc2c2oc(C(=O)NCCCN3CC(C)CC(C)C3)cc12` (stereo not given), the figure is 5380 nM; as for `COc1cccc(-c2cnc3c(NC(C)=O)cc(-c4cc(F)ccc4OC)cn23)c1`, 1600 nM.
The figure for `O=C(Nc1ccc(Cc2ccncc2)cc1)c1ccc([N+](=O)[O-])o1` is 1150 nM; for `CCN(CC)S(=O)(=O)c1cc(NC(=O)Cn2ncc(Cl)c(Cl)c2=O)ccc1C` it is 1030 nM; for `O=C(NCc1ccco1)C1CC(c2ccc(C(F)(F)F)cc2)=NO1` (stereo not given) it is 9730 nM.
